Measured values taken from patent US12410179B2, “Modulators of TNF alpha activity and uses thereof” (RayThera, Inc., priority 2023, dated 2025).

Molecular target: TNFα (Homo sapiens, UniProt P01375)
Experiment: HEK-Blue hTNFα reporter assay
Assay type: cell-based
Parameters: purchased R&D biosystem (R&D Systems) 210-TA-020/CF
Settings: HEK-Blue hTNFα reporter cells, SEAP readout; read-out: IC50 Range
Summary of the method: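 IC50 from 4-parameter regression of % inhibition, with OD620 of secreted SEAP (QUANTI-Blue, 1 h) referenced to cells with and without hTNFα. HEK-Blue TNFα reporter cells were exposed 24 h to compound premixed 1 h with hTNFα ([…]).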

TNFα, sequence (P01375 77-233 limits assumed): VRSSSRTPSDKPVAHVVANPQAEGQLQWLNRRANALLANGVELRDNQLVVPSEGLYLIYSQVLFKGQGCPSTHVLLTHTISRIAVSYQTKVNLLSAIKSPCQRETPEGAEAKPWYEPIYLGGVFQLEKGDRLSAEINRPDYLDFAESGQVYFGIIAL

Structure (SMILES) | IC50
CN1C(=O)c2cccc(OC(F)F)c2[C@H]2C[C@@H]1c1nn3ccc(-c4cnc([C@]5(O)CC[C@H](O)C5)nc4)cc3c12 [Example 111] | < 25 nM
CN1C(=O)c2cccc(OC(F)F)c2[C@H]2C[C@@H]1c1nn3ccc(-c4cnc([C@@]5(O)CC[C@@H](O)C5)nc4)cc3c12 [Example 112] | < 25 nM
[2H]C([2H])([2H])N1C(=O)c2cccc(OC(F)F)c2[C@H]2C[C@@H]1c1nn3cc(F)c(-c4ccc(P(C)(C)=O)nc4)cc3c12 [Example 113] | < 25 nM
CN1C(=O)c2cccc(OC(F)F)c2[C@H]2C[C@@H]1c1nn3cc(F)c(-c4cnc([C@](C)(O)CO)nc4)cc3c12 [Example 114] | < 25 nM
CN1C(=O)c2cccc(OC(F)F)c2[C@H]2C[C@@H]1c1nn3cc(F)c(-c4cnc([C@@](C)(O)CO)nc4)cc3c12 [Example 115] | < 25 nM
CN1C(=O)c2cccc(OC(F)F)c2[C@H]2C[C@@H]1c1nn3cc(F)c(-c4cnc([C@@](C)(O)CC#N)nc4)cc3c12 [Example 116] | < 25 nM
CN1C(=O)c2cccc(OC(F)F)c2[C@H]2C[C@@H]1c1nn3cc(F)c(-c4cnc([C@](C)(O)CC#N)nc4)cc3c12 [Example 117] | < 25 nM
C[C@H](O)[C@@H](O)c1ncc(-c2ccn3nc4c(c3c2)[C@@H]2C[C@H]4N(C)C(=O)c3cccc(OC(F)F)c32)cn1 [Example 118] | < 25 nM
C[C@@H](O)[C@H](O)c1ncc(-c2ccn3nc4c(c3c2)[C@@H]2C[C@H]4N(C)C(=O)c3cccc(OC(F)F)c32)cn1 [Example 119] | < 25 nM
CN1C(=O)c2cccc(OC(F)F)c2[C@H]2C[C@@H]1c1nn3cc(F)c(-c4ccc([S@@](=N)(=O)C5CC5)nc4)cc3c12 [Example 120] | < 25 nM
CN1C(=O)c2cccc(OC(F)F)c2[C@H]2C[C@@H]1c1nn3ccc(-c4ccc(P(C)(C)=O)cn4)cc3c12 [Example 122] | < 25 nM
CN1C(=O)c2cccc(OC(F)F)c2[C@H]2C[C@@H]1c1nn3ccc(-c4ccc(P(C)(C)=O)cc4)cc3c12 [Example 123] | < 25 nM
[2H]C([2H])([2H])N1C(=O)c2cccc(OC(F)F)c2[C@H]2C[C@@H]1c1nn3ccc(-c4ccc(S(=N)(=O)CC)nc4)cc3c12 (stereo partly shown) [Example 124] | < 25 nM
CN1C(=O)c2cccc(OC(F)F)c2[C@H]2C[C@@H]1c1nn3cc(F)c(-c4cnc([C@]5(O)C[C@@H](O)C5)nc4)cc3c12 [Example 125] | < 25 nM
CN1C(=O)c2cccc(OC(F)F)c2[C@H]2C[C@@H]1c1nn3ccc(-c4cnc(S(=N)(=O)C5CC5)cn4)cc3c12 (stereo partly shown) [Example 126] | < 25 nM
CP(C)(=O)c1ccc(-c2ccn3nc4c(c3c2)[C@@H]2C[C@H]4NC(=O)c3cccc(OC(F)F)c32)cc1F [Example 127] | < 25 nM
CN1C(=O)c2cccc(OC(F)F)c2[C@H]2C[C@@H]1c1nn3cc(F)c(-c4cnc(P(C)(C)=O)cn4)cc3c12 [Example 128] | < 25 nM
CN1C(=O)c2cccc(OC(F)F)c2[C@H]2C[C@@H]1c1nn3ccc(-c4ncc([C@@H](O)[C@@H]5CCO5)cn4)cc3c12 [Example 129] | < 25 nM
CN1C(=O)c2cccc(OC(F)F)c2[C@H]2C[C@@H]1c1nn3ccc(-c4ncc([C@@H](O)[C@H]5CCO5)cn4)cc3c12 [Example 130] | < 25 nM
CN1C(=O)c2cccc(OC(F)F)c2[C@H]2C[C@@H]1c1nn3ccc(-c4ncc([C@H](O)[C@@H]5CCO5)cn4)cc3c12 [Example 131] | < 25 nM

Structure (SMILES) | IC50
CN1C(=O)c2cccc(OC(F)F)c2[C@H]2C[C@@H]1c1nn3ccc(-c4ncc([C@H](O)[C@H]5CCO5)cn4)cc3c12 [Example 132] | < 25 nM
CN1C(=O)c2cccc(OC(F)F)c2[C@H]2C[C@@H]1c1nn3ccc(-c4cnc([C@H](O)C(C)(C)O)nc4)cc3c12 [Example 133] | < 25 nM
CN1C(=O)c2cccc(OC(F)F)c2[C@H]2C[C@@H]1c1nn3ccc(-c4cnc([C@@H](O)C(C)(C)O)nc4)cc3c12 [Example 134] | < 25 nM
C[C@H](O)[C@H](O)c1ncc(-c2ccn3nc4c(c3c2)[C@@H]2C[C@H]4N(C)C(=O)c3cccc(OC(F)F)c32)cn1 [Example 135] | < 25 nM
CN1C(=O)c2cccc(OC(F)F)c2[C@H]2C[C@@H]1c1nn3ccc(-c4cnc([C@@H](O)C5COC5)nc4)cc3c12 [Example 136] | < 25 nM
CN1C(=O)c2cccc(OC(F)F)c2[C@H]2C[C@@H]1c1nn3ccc(-c4cnc([C@H](O)C5COC5)nc4)cc3c12 [Example 137] | < 25 nM
CN1C(=O)c2cccc(OC(F)F)c2[C@H]2C[C@@H]1c1nn3ccc(-c4ncc(P(C)(C)=O)cn4)cc3c12 [Example 138] | < 25 nM
CN1C(=O)c2cccc(OC(F)F)c2[C@H]2C[C@@H]1c1nn3ccc(-c4cnc([C@]5(O)C[C@](C)(O)C5)nc4)cc3c12 [Example 139] | < 25 nM
O=C1N[C@@H]2C[C@H](c3c(OC(F)F)cccc31)c1c2nn2ccc(-c3cnc(C4(O)CCC4)nc3)cc12 [Example 140] | < 25 nM
CN1C(=O)c2cccc(OC(F)F)c2[C@H]2C[C@@H]1c1nn3ccc(-c4ncc([C@]5(O)C[C@@](C)(O)C5)cn4)cc3c12 [Example 142] | < 25 nM
CN1C(=O)c2cccc(OC(F)F)c2[C@H]2C[C@@H]1c1nn3ccc(-c4cnc(N5CCNCC5)nc4)cc3c12 [Example 143] | < 25 nM
CN1C(=O)c2cccc(OC(F)F)c2[C@H]2C[C@@H]1c1nn3cnc(-c4ccc(P(C)(C)=O)c(F)c4)cc3c12 [Example 144] | < 25 nM
CN1C(=O)c2cccc(OC(F)F)c2[C@H]2C[C@@H]1c1nn3ccc(-c4cnc(N5CCN(CCO)CC5)nc4)cc3c12 [Example 145] | < 25 nM
CN1C(=O)c2cccc(OC(F)F)c2[C@H]2C[C@@H]1c1nn3cnc(-c4cnc(C5(N)CC(F)(F)C5)nc4)cc3c12 [Example 146] | < 25 nM
Cc1nc([C@]2(O)C[C@@](C)(O)C2)ncc1-c1ccn2nc3c(c2c1)[C@@H]1C[C@H]3N(C)C(=O)c2cccc(OC(F)F)c21 [Example 147] | < 25 nM
CC(=O)N1CCN(c2ncc(-c3ccn4nc5c(c4c3)[C@@H]3C[C@H]5N(C)C(=O)c4cccc(OC(F)F)c43)cn2)CC1 [Example 148] | < 25 nM
O=C1N[C@@H]2C[C@H](c3c(OC(F)F)cccc31)c1c2nn2ccc(-c3cnc(C4(O)CC(F)(F)C4)nc3)cc12 [Example 150] | < 25 nM
C[C@@](O)(c1ncc(-c2ccn3nc4c(c3c2)[C@@H]2C[C@H]4NC(=O)c3cccc(OC(F)F)c32)cn1)C(F)F [Example 151] | < 25 nM
C[C@](O)(c1ncc(-c2ccn3nc4c(c3c2)[C@@H]2C[C@H]4NC(=O)c3cccc(OC(F)F)c32)cn1)C(F)F [Example 152] | < 25 nM
[2H]C([2H])([2H])N1C(=O)c2cccc(OC(F)F)c2[C@H]2C[C@@H]1c1nn3ccc(-c4cnc(C5(O)COC5)nc4)cc3c12 [Example 153] | < 25 nM

Structure (SMILES) | IC50
CN1C(=O)c2cccc(OC(F)F)c2[C@H]2C[C@@H]1c1nn3ccc(-c4ccc([C@]5(N)C[C@@](C)(C(=O)O)C5)c(F)c4)cc3c12 [Example 154] | < 25 nM
CN1CCN(c2ncc(-c3ccn4nc5c(c4c3)[C@@H]3C[C@H]5N(C)C(=O)c4cccc(OC(F)F)c43)cn2)CC1 [Example 155] | < 25 nM
CN1C(=O)c2cccc(OC(F)F)c2[C@H]2C[C@@H]1c1nn3ccc(-c4cnc(N5CCC(O)CC5)nc4)cc3c12 [Example 156] | < 25 nM
CN1C(=O)c2cccc(OC(F)F)c2[C@H]2C[C@@H]1c1nn3ccc(-c4cnc(N5CCOCC5)nc4)cc3c12 [Example 158] | < 25 nM
CN1C(=O)c2ccnc(OC(F)F)c2[C@H]2C[C@@H]1c1nn3cc(F)c(-c4ccc(P(C)(C)=O)c(F)c4)cc3c12 [Example 159] | < 25 nM
CN1C(=O)c2cccc(OC(F)F)c2[C@H]2C[C@@H]1c1nn3ccc(-c4cnc([C@]5(O)C[C@@](C)(C(N)=O)C5)nc4)cc3c12 [Example 160] | < 25 nM
CN1C(=O)c2cccc(OC(F)F)c2[C@H]2C[C@@H]1c1nn3cc(F)c(-c4ccc(P5(=O)CCOCC5)nc4)cc3c12 [Example 161] | < 25 nM
O=C1N[C@@H]2C[C@H](c3c(OC(F)F)cccc31)c1c2nn2ccc(-c3cnc(N4CCOCC4)nc3)cc12 [Example 162] | < 25 nM
C[C@@](O)(CC#N)c1ncc(-c2ccn3nc4c(c3c2)[C@@H]2C[C@H]4NC(=O)c3cccc(OC(F)F)c32)cn1 [Example 163] | < 25 nM
C[C@](O)(CC#N)c1ncc(-c2ccn3nc4c(c3c2)[C@@H]2C[C@H]4NC(=O)c3cccc(OC(F)F)c32)cn1 [Example 164] | < 25 nM
CN1C(=O)c2cccc(OC(F)F)c2[C@H]2C[C@@H]1c1nn3ccc(-c4ccc([C@]5(N)C[C@@](C)(C(=O)O)C5)nc4)cc3c12 [Example 165] | < 25 nM
CN1C(=O)c2cccc(OC(F)F)c2[C@H]2C[C@@H]1c1nn3cc(F)c(-c4ncc(C5(O)COC5)cn4)cc3c12 [Example 166] | < 25 nM
CN1C(=O)c2cccc(OC(F)F)c2[C@H]2C[C@@H]1c1nn3ccc(-c4cnc([C@]5(N)C[C@](C)(C#N)C5)nc4)cc3c12 [Example 167] | < 25 nM
CN1C(=O)c2cccc(OC(F)F)c2[C@H]2C[C@@H]1c1nn3ccc(-c4cnc([C@]5(N)C[C@@H](O)C5)c(F)c4)cc3c12 [Example 168] | < 25 nM
CN1C(=O)c2cccc(OC(F)F)c2[C@H]2C[C@@H]1c1nn3ccc(-c4cnc([C@]5(N)C[C@H](O)C5)c(F)c4)cc3c12 [Example 169] | < 25 nM
[2H]C([2H])([2H])N1C(=O)c2cccc(OC(F)F)c2[C@H]2C[C@@H]1c1nn3ccc(-c4cnc([C@]5(N)C[C@@H](C#N)C5)nc4)cc3c12 [Example 170] | < 25 nM
CN1C(=O)c2cccc(OC(F)F)c2[C@H]2C[C@@H]1c1nn3ccc(-c4cnc([C@@H](O)CN5CCC5)nc4)cc3c12 [Example 171] | 25 to 100 nM
CN1C(=O)c2cccc(OC(F)F)c2[C@H]2C[C@@H]1c1nn3ccc(-c4cnc([C@H](O)CN5CCC5)nc4)cc3c12 [Example 172] | 100 to 1000 nM
